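Grown in 96-well plates, cells were treated for 48 hours with each compound at five concentrations. Insufficient inhibition: endpoint recorded as highest concentration tested. GI50 marks 50% less growth. At the TGI there is no net growth.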
Legend:
Test in all cases: growth of human tumour cells (NCI), 48 h
MALME-3M melanoma = system: MALME-3M melanoma
NCI-H226 lung = system: NCI-H226 lung
SF-295 CNS = system: SF-295 CNS
786-0 renal = system: 786-0 renal
UO-31 renal = system: UO-31 renal
SK-MEL-5 melanoma = system: SK-MEL-5 melanoma
HOP-92 NSCLC = system: HOP-92 NSCLC
SR leukemia = system: SR leukemia
MOLT-4 leukemia = system: MOLT-4 leukemia
MDA-MB-435 = system: MDA-MB-435
PC-3 prostate = system: PC-3 prostate
HCC-2998 colon = system: HCC-2998 colon
SK-MEL-28 melanoma = system: SK-MEL-28 melanoma
LOX IMVI melanoma = system: LOX IMVI melanoma
EKVX NSCLC = system: EKVX NSCLC
OVCAR-8 ovarian = system: OVCAR-8 ovarian
SF-268 CNS = system: SF-268 CNS
NCI-H460 lung = system: NCI-H460 lung
HCT-15 colon = system: HCT-15 colon
HOP-62 NSCLC = system: HOP-62 NSCLC
HCT-116 colon = system: HCT-116 colon
SNB-19 CNS = system: SNB-19 CNS
KM12 colon = system: KM12 colon
CCRF-CEM leukemia = system: CCRF-CEM leukemia
SW-620 colon = system: SW-620 colon
ACHN renal = system: ACHN renal
SK-MEL-2 melanoma = system: SK-MEL-2 melanoma
A549 NSCLC = system: A549 NSCLC
M14 melanoma = system: M14 melanoma
MCF7 breast = system: MCF7 breast
HT29 colon = system: HT29 colon
CAKI-1 renal = system: CAKI-1 renal
UACC-62 melanoma = system: UACC-62 melanoma
RXF 393 renal = system: RXF 393 renal
UACC-257 melanoma = system: UACC-257 melanoma
TK-10 renal = system: TK-10 renal
NCI-H522 lung = system: NCI-H522 lung
SF-539 CNS = system: SF-539 CNS
HS 578T breast = system: HS 578T breast
OVCAR-3 ovarian = system: OVCAR-3 ovarian
IGROV1 ovarian = system: IGROV1 ovarian
NCI-H23 lung = system: NCI-H23 lung
A498 renal = system: A498 renal
MDA-MB-231 breast = system: MDA-MB-231 breast
HL-60(TB) leukemia = system: HL-60(TB) leukemia
OVCAR-4 ovarian = system: OVCAR-4 ovarian
U251 CNS = system: U251 CNS
RPMI-8226 leukemia = system: RPMI-8226 leukemia
BT-549 breast = system: BT-549 breast
OVCAR-5 ovarian = system: OVCAR-5 ovarian
K-562 leukemia = system: K-562 leukemia
SK-OV-3 ovarian = system: SK-OV-3 ovarian
NCI/ADR-RES ovarian = system: NCI/ADR-RES ovarian
SN12C renal = system: SN12C renal
COLO 205 colon = system: COLO 205 colon
SNB-75 CNS = system: SNB-75 CNS
DU-145 prostate = system: DU-145 prostate
T-47D breast = system: T-47D breast

`COc1cccc(-n2ncc3c(N/N=C/c4ccc(F)cc4)ncnc32)c1` showed a GI50 (MALME-3M melanoma) of 11.3 µM, a TGI (MALME-3M melanoma) greater than 25 µM and a GI50 (NCI-H226 lung) greater than 25 µM. The TGI (NCI-H226 lung) was greater than 25 µM, the GI50 (SF-295 CNS) was greater than 25 µM and the TGI (SF-295 CNS) was greater than 25 µM. The GI50 (786-0 renal) was 11.8 µM, the TGI (786-0 renal) was greater than 19.5 µM and the GI50 (UO-31 renal) was greater than 14.6 µM. For the same molecule, the TGI (UO-31 renal) was greater than 25 µM, the GI50 (SK-MEL-5 melanoma) was 14.7 µM and the TGI (SK-MEL-5 melanoma) was greater than 25 µM. The GI50 (HOP-92 NSCLC) was 6.48 µM, the TGI (HOP-92 NSCLC) was 19.9 µM and the GI50 (SR leukemia) was greater than 25 µM. For the same molecule, the TGI (SR leukemia) was greater than 25 µM, the GI50 (MOLT-4 leukemia) was greater than 25 µM and the TGI (MOLT-4 leukemia) was greater than 25 µM. The GI50 (MDA-MB-435) was 14.5 µM, the TGI (MDA-MB-435) was greater than 25 µM and the GI50 (PC-3 prostate) was greater than 25 µM. It also gave a TGI (PC-3 prostate) greater than 25 µM, a GI50 (HCC-2998 colon) greater than 25 µM and a TGI (HCC-2998 colon) greater than 25 µM. It also gave a GI50 (SK-MEL-28 melanoma) greater than 25 µM, a TGI (SK-MEL-28 melanoma) greater than 25 µM and a GI50 (LOX IMVI melanoma) greater than 25 µM. The TGI (LOX IMVI melanoma) was greater than 25 µM, the GI50 (EKVX NSCLC) was greater than 25 µM and the TGI (EKVX NSCLC) was greater than 25 µM. It also gave a GI50 (OVCAR-8 ovarian) of 14.8 µM, a TGI (OVCAR-8 ovarian) greater than 25 µM and a GI50 (SF-268 CNS) greater than 25 µM. The TGI (SF-268 CNS) was greater than 25 µM, the GI50 (NCI-H460 lung) was 10.3 µM and the TGI (NCI-H460 lung) was 24.7 µM. It also gave a GI50 (HCT-15 colon) greater than 25 µM, a TGI (HCT-15 colon) greater than 25 µM and a GI50 (HOP-62 NSCLC) of 16.7 µM. The TGI (HOP-62 NSCLC) was greater than 25 µM, the GI50 (HCT-116 colon) was 10.2 µM and the TGI (HCT-116 colon) was greater than 25 µM. For the same molecule, the GI50 (SNB-19 CNS) was 24.5 µM, the TGI (SNB-19 CNS) was greater than 25 µM and the GI50 (KM12 colon) was 18.4 µM. The TGI (KM12 colon) was greater than 25 µM, the GI50 (CCRF-CEM leukemia) was greater than 25 µM and the TGI (CCRF-CEM leukemia) was greater than 25 µM. For the same molecule, the GI50 (SW-620 colon) was 24.3 µM, the TGI (SW-620 colon) was greater than 25 µM and the GI50 (ACHN renal) was greater than 25 µM. For the same molecule, the TGI (ACHN renal) was greater than 25 µM, the GI50 (SK-MEL-2 melanoma) was greater than 25 µM and the TGI (SK-MEL-2 melanoma) was greater than 25 µM. It also gave a GI50 (A549 NSCLC) of 11.6 µM, a TGI (A549 NSCLC) greater than 25 µM and a GI50 (M14 melanoma) greater than 23.6 µM. For the same molecule, the TGI (M14 melanoma) was greater than 25 µM, the GI50 (MCF7 breast) was greater than 17 µM and the TGI (MCF7 breast) was greater than 25 µM. For the same molecule, the GI50 (HT29 colon) was greater than 25 µM, the TGI (HT29 colon) was greater than 25 µM and the GI50 (CAKI-1 renal) was greater than 18.7 µM. The TGI (CAKI-1 renal) was greater than 25 µM, the GI50 (UACC-62 melanoma) was greater than 25 µM and the TGI (UACC-62 melanoma) was greater than 25 µM. It also gave a GI50 (RXF 393 renal) of 10.6 µM, a TGI (RXF 393 renal) of 24.9 µM and a GI50 (UACC-257 melanoma) greater than 25 µM. It also gave a TGI (UACC-257 melanoma) greater than 25 µM, a GI50 (TK-10 renal) of 12.4 µM and a TGI (TK-10 renal) greater than 23.3 µM. It also gave a GI50 (NCI-H522 lung) greater than 19.1 µM, a TGI (NCI-H522 lung) greater than 25 µM and a GI50 (SF-539 CNS) of 13.9 µM. It also gave a TGI (SF-539 CNS) greater than 25 µM, a GI50 (HS 578T breast) of 7.51 µM and a TGI (HS 578T breast) of 22.1 µM. It also gave a GI50 (OVCAR-3 ovarian) of 5.27 µM, a TGI (OVCAR-3 ovarian) of 10.3 µM and a GI50 (IGROV1 ovarian) greater than 25 µM. The TGI (IGROV1 ovarian) was greater than 25 µM, the GI50 (NCI-H23 lung) was greater than 20.1 µM and the TGI (NCI-H23 lung) was greater than 25 µM. The GI50 (A498 renal) was greater than 16.1 µM, the TGI (A498 renal) was greater than 25 µM and the GI50 (MDA-MB-231 breast) was 8.59 µM. The TGI (MDA-MB-231 breast) was greater than 25 µM, the GI50 (HL-60(TB) leukemia) was greater than 25 µM and the TGI (HL-60(TB) leukemia) was greater than 25 µM. For the same molecule, the GI50 (OVCAR-4 ovarian) was 6.55 µM, the TGI (OVCAR-4 ovarian) was 14.5 µM and the GI50 (U251 CNS) was 8.81 µM. The TGI (U251 CNS) was greater than 21.9 µM, the GI50 (RPMI-8226 leukemia) was greater than 25 µM and the TGI (RPMI-8226 leukemia) was greater than 25 µM. The GI50 (BT-549 breast) was greater than 25 µM, the TGI (BT-549 breast) was greater than 25 µM and the GI50 (OVCAR-5 ovarian) was greater than 25 µM. The TGI (OVCAR-5 ovarian) was greater than 25 µM, the GI50 (K-562 leukemia) was greater than 25 µM and the TGI (K-562 leukemia) was greater than 25 µM. For the same molecule, the GI50 (SK-OV-3 ovarian) was 13.6 µM, the TGI (SK-OV-3 ovarian) was greater than 25 µM and the GI50 (NCI/ADR-RES ovarian) was 14.2 µM. It also gave a TGI (NCI/ADR-RES ovarian) greater than 25 µM, a GI50 (SN12C renal) of 23 µM and a TGI (SN12C renal) greater than 25 µM. For the same molecule, the GI50 (COLO 205 colon) was greater than 25 µM, the TGI (COLO 205 colon) was greater than 25 µM and the GI50 (SNB-75 CNS) was 5.98 µM. For the same molecule, the TGI (SNB-75 CNS) was greater than 18.6 µM, the GI50 (DU-145 prostate) was 17.4 µM and the TGI (DU-145 prostate) was greater than 25 µM. It also gave a GI50 (T-47D breast) of 11.6 µM and a TGI (T-47D breast) greater than 25 µM.

— PubChem BioAssay (NCI)
